Laboratory results from publication PMC4774911, “Biochemical Screening of Five Protein Kinases from Plasmodium falciparum against 14,000 Cell-Active Compounds” (PLoS ONE, 2016).
Where two headings read alike, the source gives them in different places.

Key:
[1] = biological target: T1, Plasmodium falciparum calcium-dependent protein kinase 1 (CDPK1) (Plasmodium falciparum, UniProt P62344); assay: CDPK1 Kinase-Glo ATP-consumption screen and dose-response; type: biochemical; conditions: hits below 1 uM; read-out: CDPK1 IC50
T1 construct: 6-Histidine (N); made in house
Summary of the method: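 Single-point testing used 1 μM final compound, then dose-response, against CDPK4 and CDPK1 with Syntide-2 (40 μM) as substrate. After 90 min, reactions were halted by 5 mM EGTA, and kinase activity was inferred from depleted ATP via Kinase-Glo luminescence.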

[2] = system: DD2; parameters: method as in downloaded from ChEMBL; conditions: ref downloaded from ChEMBL; cited from earlier work
[3] = system: 3D7 PFLDH; parameters: method as in downloaded from ChEMBL; conditions: ref downloaded from ChEMBL; cited from earlier work
[4] = system: P. falciparum 3D7 cells; conditions: cited from earlier work
[5] = system: HepG2 cells; conditions: cited from earlier work
[6] = system: DD2; parameters: method as in F.J. Gamo et al., Nature 2010; conditions: P. falciparum Dd2; downloaded from ChEMBL ref F.J. Gamo et al., Nature 2010; cited from earlier work
[7] = biological target: T2, Plasmodium falciparum protein kinase 6 (PK6) (Plasmodium falciparum, UniProt Q8IDW1); assay: biochemical; conditions: hits below 1 uM; read-out: PK6 IC50
T2 construct: 6-Histidine (N); made in house
T2 sequence (Q8IDW1 1-305): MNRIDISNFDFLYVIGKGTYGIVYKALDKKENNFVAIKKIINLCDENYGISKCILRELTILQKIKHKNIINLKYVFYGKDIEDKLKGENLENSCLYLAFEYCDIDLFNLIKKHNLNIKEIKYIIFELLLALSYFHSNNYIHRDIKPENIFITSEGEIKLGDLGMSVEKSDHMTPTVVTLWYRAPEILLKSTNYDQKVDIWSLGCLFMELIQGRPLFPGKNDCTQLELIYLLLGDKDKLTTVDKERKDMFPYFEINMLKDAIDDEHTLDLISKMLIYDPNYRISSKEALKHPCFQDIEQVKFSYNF

[8] = system: 3D7 PFLDH; parameters: method as in F.J. Gamo et al., Nature 2010; conditions: downloaded from ChEMBL ref F.J. Gamo et al., Nature 2010; cited from earlier work
[9] = system: DD2; parameters: method as in F.J. Gamo et al., Nature 2010; conditions: downloaded from ChEMBL, ref F.J. Gamo et al., Nature 2010; cited from earlier work
[10] = system: 3D7 PFLDH; parameters: method as in F.J. Gamo et al., Nature 2010; concentration or dose not given beside the values; conditions: downloaded from ChEMBL, ref F.J. Gamo et al., Nature 2010; cited from earlier work
[11] = 3D7, ref downloaded from ChEMBL
[12] = HEPG2, ref downloaded from ChEMBL
[13] = P. falciparum 3D7, downloaded from ChEMBL ref F.J. Gamo et al., Nature 2010
[14] = HepG2 cells, downloaded from ChEMBL ref F.J. Gamo et al., Nature 2010
[15] = 3D7, downloaded from ChEMBL, ref F.J. Gamo et al., Nature 2010
[16] = HepG2, downloaded from ChEMBL, ref F.J. Gamo et al., Nature 2010

T1 sequence (P62344 whole entry): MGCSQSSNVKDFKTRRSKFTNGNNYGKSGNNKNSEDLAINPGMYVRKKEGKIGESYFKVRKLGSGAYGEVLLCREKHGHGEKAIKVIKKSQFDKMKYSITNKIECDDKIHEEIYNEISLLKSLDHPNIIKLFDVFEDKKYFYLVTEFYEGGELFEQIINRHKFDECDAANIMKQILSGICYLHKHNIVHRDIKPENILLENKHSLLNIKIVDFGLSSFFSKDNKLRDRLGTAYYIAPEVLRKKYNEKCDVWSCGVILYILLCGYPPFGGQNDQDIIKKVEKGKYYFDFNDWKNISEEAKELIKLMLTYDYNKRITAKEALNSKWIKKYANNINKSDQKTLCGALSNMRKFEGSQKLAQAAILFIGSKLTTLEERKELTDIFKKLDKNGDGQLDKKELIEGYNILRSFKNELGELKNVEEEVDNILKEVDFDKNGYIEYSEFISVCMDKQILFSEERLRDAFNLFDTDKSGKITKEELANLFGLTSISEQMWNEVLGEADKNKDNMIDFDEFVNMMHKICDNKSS

Row | SMILES | IC50 [1] [nM] | PCT_INHB_DD2 [2] | PCT_INHIB_3D7_PFLDH [3] | PCT_IHB_3D7 [4, 11] | pXC50_3D7 [4, 11] | PCT_INHIB_HEPG2 [5, 12] | PCT_INHB_DD2 [6] | IC50 [7] [nM] | PCT_INHIB_3D7_PFLDH [8] | PCT_IHB_3D7 [4, 13] | pXC50_3D7 [4, 13] | PCT_INHIB_HEPG2 [5, 14] | PCT_INHB_DD2 [9] [%] | PCT_INHIB_3D7_PFLDH [10] [%] | PCT_IHB_3D7 [4, 15] [%] | pXC50_3D7 [4, 15] | PCT_INHIB_HEPG2 [5, 16] [%]
1 | Oc1cc(Nc2ccnc3cc(I)ccc23)c(F)cc1Cl [TCMDC-138386] | 282 | 77 | 0 | 92 | 6.08 | 0 | – | – | – | – | – | – | – | – | – | – | –
2 | Nc1ncc(-c2cccc(F)c2)cc1-c1nc2cc(F)ccc2[nH]1.O=C(O)C(F)(F)F [TCMDC-133132] | – | – | – | – | – | – | 88 | 206 | 0 | 100 | 6.757 | 54 | – | – | – | – | –
3 | CN1CCN(c2ccc(Nc3nccc(-c4cnn5ncccc45)n3)cc2Cl)CC1 [TCMDC-138688] | 232 | – | – | – | – | – | 92 | 179 | 0 | 95 | 6.08 | 65 | – | – | – | – | –
4 | COc1ccc(-c2cnc3ccc(NC4CCC(O)CC4)nn23)cn1 (centres unmarked) [TCMDC-136694] | 379 | 73 | 4 | 98 | 6.146 | 54 | – | – | – | – | – | – | – | – | – | – | –
5 | CN(C)Cc1ccc(-c2ccc3c(Nc4ccc(Oc5ccccn5)cc4)ccnc3c2)o1 [TCMDC-138425] | 513 | 100 | 1 | 100 | 6.798 | 18 | – | – | – | – | – | – | – | – | – | – | –
6 | COc1ccc(-c2cnc3ccc(N4CCCC4)nn23)cc1OC.O=CO [TCMDC-134177] | 310 | 98 | 0 | 98 | 6.113 | 40 | – | – | – | – | – | – | – | – | – | – | –
7 | CN(C)CCN(C)Cc1nc(-c2ccc3c(Nc4ccc(Oc5ccccc5)cc4)ccnc3c2)cs1 [TCMDC-138408] | 915 | 100 | 0 | 100 | 6.673 | 27 | – | – | – | – | – | – | – | – | – | – | –
8 | COc1ccc(-c2cnc3[nH]cc(-c4ccncc4)c3c2)cc1OC [TCMDC-135853] | 390 | 97 | 0 | 98 | 6.899 | 52 | – | – | – | – | – | – | – | – | – | – | –
9 | CN1CCN(Cc2ccc(-c3ccc4c(Nc5ccc(Cl)cc5F)ccnc4c3)o2)CC1 [TCMDC-138395] | 406 | 100 | 0 | 100 | 6.811 | 47 | – | – | – | – | – | – | – | – | – | – | –
10 | N#Cc1ccc(-c2cnc3ccc(NCCc4cccnc4)nn23)cc1 [TCMDC-136679] | 246 | 81 | 6 | 99 | 6.593 | 27 | – | – | – | – | – | – | – | – | – | – | –
11 | CN(C)CCNCc1ccc(-c2ccc3c(Nc4ccc(Cl)cc4F)ccnc3c2)o1 [TCMDC-138391] | 374 | 100 | 0 | 99 | 6.681 | 14 | – | – | – | – | – | – | – | – | – | – | –
12 | c1cncc(Oc2ccc(Nc3ccnc4cc(-c5cccc(CNCCN6CCOCC6)c5)ccc34)cc2)c1 [TCMDC-138492] | 705 | 99 | 4 | 100 | 6.952 | 14 | – | – | – | – | – | – | – | – | – | – | –
13 | Cl.Oc1cccc(Nc2ccnc3cc(-c4ccncc4)ccc23)c1 [TCMDC-138292] | 884 | 99 | 1 | 100 | 5.98 | 8 | – | – | – | – | – | – | – | – | – | – | –
14 | CN(C)CCNCc1ccc(-c2ccc3c(Nc4ccc(Oc5ccccc5)cc4)ccnc3c2)o1 [TCMDC-138399] | 681 | 99 | 2 | 100 | 6.553 | 19 | – | – | – | – | – | – | – | – | – | – | –
15 | Cc1nnc(-c2cccc(Nc3ccnc4cc(-c5nccs5)ccc34)c2)o1.Cl [TCMDC-138335] | 186 | 89 | 0 | 95 | 6.199 | 38 | – | – | – | – | – | – | – | – | – | – | –
16 | NS(=O)(=O)c1cccc(Nc2nccc(-c3cnn4ncccc34)n2)c1 [TCMDC-138919] | – | – | – | – | – | – | 89 | 246 | 0 | 89 | 6.18 | 39 | – | – | – | – | –
17 | Clc1ccc(-c2cnc3ccc(NCCc4cccnc4)nn23)cc1 [TCMDC-136680] | 371 | 32 | 0 | 97 | 6.067 | 34 | – | – | – | – | – | – | – | – | – | – | –
18 | CS(=O)(=O)c1cccc(-c2cnc3[nH]cc(-c4cccc(CCN)c4)c3c2)c1.O=C(O)C(F)(F)F [TCMDC-136307] | 44 | 74 | 0 | 99 | 5.808 | 0 | – | – | – | – | – | – | – | – | – | – | –
19 | CS(=O)(=O)Nc1cccc(-c2cnc3[nH]cc(-c4ccc(CN)cc4)c3c2)c1 [TCMDC-136218] | 552 | 95 | 2 | 98 | 6.0063 | 27 | – | – | – | – | – | – | – | – | – | – | –
20 | COCCNCc1cccc(-c2ccc3c(Nc4ccc(Oc5cccnc5)cc4)ccnc3c2)c1 [TCMDC-138487] | 913 | 99 | 0 | 100 | 6.749 | 58 | – | – | – | – | – | – | – | – | – | – | –
21 | CS(=O)(=O)CCNCc1cccc(-c2ccc3c(Nc4ccc(Oc5cccnc5)cc4)ccnc3c2)c1 [TCMDC-138488] | 966 | 99 | 4 | 100 | 6.847 | 27 | – | – | – | – | – | – | – | – | – | – | –
22 | Cl.Oc1cccc(Nc2ccnc3cc(-c4nccs4)ccc23)c1 [TCMDC-138297] | 997 | – | 0 | 98 | – | 0 | – | – | – | – | – | – | – | – | – | – | –
23 | Cl.NC(=O)c1ccccc1Nc1nc(Nc2cccc(N3CCN(CCO)CC3)c2)ncc1Cl [TCMDC-134114] | 58 | – | – | – | – | – | – | 80 | – | – | – | – | 98 | 1 | 95 | 7.402 | 93
24 | CNC(=O)c1ccccc1Nc1nc(Nc2ccc(N3CCN(C)CC3)nc2)ncc1C.Cl [TCMDC-134123] | 45 | – | – | – | – | – | – | 143 | – | – | – | – | 50 | 4 | 92 | 5.942 | 75
25 | Cc1cc(Nc2ncc(Cl)c(Nc3ccccc3C(N)=O)n2)n[nH]1 [TCMDC-134170] | 76 | – | – | – | – | – | – | 129 | – | – | – | – | 96 | 0 | 98 | 6.091 | 70
26 | COc1ccc(Nc2ncc(C#N)c(Nc3ccccc3C(N)=O)n2)cc1N1CCN(C)CC1.Cl [TCMDC-134117] | 89 | – | – | – | – | – | – | 61 | – | – | – | – | 97 | 0 | 93 | 6.867 | 56
27 | CNC(=O)c1ccccc1Nc1nc(Nc2cccc(CS(C)(=O)=O)c2)ncc1C.O=CO [TCMDC-133809] | 145 | – | – | – | – | – | – | 133 | – | – | – | – | 95 | 0 | 97 | 6.2733 | 74
28 | CNC(=O)c1ccccc1Nc1nc(Nc2ccc(N3CCOCC3)cc2)ncc1Cl.Cl [TCMDC-134144] | 144 | – | – | – | – | – | – | 42 | – | – | – | – | 97 | 0 | 97 | 6.138 | 75
